Legend:
Type in all cases: biochemical
[1] = target: T1, glutamate dehydrogenase (GDH) from Geotrichum candidum S12 (Geotrichum candidum, UniProt A0A023RBK5); assay: residual activity towards hexanol, GC; settings: read-out: Relative activity (%)^a
T1 construct: identified by PMF similarity to Yaliof17820p (Yarrowia homologue)
From the text: residual activity towards hexanol, GC on glutamate dehydrogenase (GDH) from Geotrichum candidum S12

[2] = target: T1, glutamate dehydrogenase (GDH) from Geotrichum candidum S12; assay: activity towards hexanol, GC; settings: read-out: Relative activity (%)^a
From the text: activity towards hexanol, GC on glutamate dehydrogenase (GDH) from Geotrichum candidum S12

[3] = target: T1, glutamate dehydrogenase (GDH) from Geotrichum candidum S12; assay: activity towards hexanol, GC; settings: 0.3 mmol/L NAD+, 9.8 mmol/L hexanol, pH 4.0, 30 °C

T1 sequence (A0A023RBK5 1-452): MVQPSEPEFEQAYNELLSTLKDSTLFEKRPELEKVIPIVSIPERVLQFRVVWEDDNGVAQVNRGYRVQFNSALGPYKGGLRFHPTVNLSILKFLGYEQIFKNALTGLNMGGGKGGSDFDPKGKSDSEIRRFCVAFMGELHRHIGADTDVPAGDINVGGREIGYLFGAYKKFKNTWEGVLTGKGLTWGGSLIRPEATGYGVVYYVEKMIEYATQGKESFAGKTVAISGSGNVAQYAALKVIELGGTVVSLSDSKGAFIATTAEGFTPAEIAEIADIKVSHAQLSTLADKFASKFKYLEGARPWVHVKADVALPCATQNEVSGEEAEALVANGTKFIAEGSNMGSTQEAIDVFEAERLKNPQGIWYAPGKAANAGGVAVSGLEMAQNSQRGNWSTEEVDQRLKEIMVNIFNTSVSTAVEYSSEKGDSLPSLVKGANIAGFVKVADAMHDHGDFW

Work on `Nc1ncnc2c1ncn2[C@@H]1O[C@H](COP(=O)(O)OP(=O)(O)OP(=O)(O)O)[C@@H](O)[C@H]1O` [ATP] yielded an activity at 1000 µM [1] of 14.3 ± 0.84%.

`Nc1ncnc2c1ncn2[C@@H]1O[C@H](COP(=O)(O)OP(=O)(O)O)[C@@H](O)[C@H]1O` [ADP] gave an activity at 1000 µM [2] of 138 ± 3.72%.

`NC(=O)c1ccc[n+]([C@@H]2O[C@H](COP(=O)(O)OP(=O)(O)OC[C@H]3O[C@@H](n4cnc5c(N)ncnc54)[C@H](O)[C@@H]3O)[C@@H](O)[C@H]2O)c1` [NAD^+] was tested, and the “activity towards hexanol, GC” value [3] was “the enzyme could use NADP^+ and NAD^+ as a hydrogen acceptor of hexanol”.
